Measurements reported in ChEMBL document CHEMBL1154917, “Flavanone and diphenylpropane glycosides and glycosidic acyl esters from Viscum articulatum” (J Nat Prod, 2010).

Tests used:
RAW264.7 = assay: Antiinflammatory activity against mouse RAW264.7 cells assessed as Inhibition of LPS-induced nitric oxide production after 24 hrs by ELISA; format: functional, cell-based; conditions: RAW264.7, 24 h
[1] = test system: Radical scavenging activity; assay: Antioxidant activity assessed as DPPH radical scavenging activity after 30 mins; format: functional
[2] = Cytotoxicity against mouse RAW264.7 cells assessed as cell viability at 1 to 20 uM after 24 hrs by MTT assay relative to control; format: cell-based; conditions: read-out: Activity

| SMILES | IC50 (RAW264.7) [µM] | ED50 [1] [µM] | viability at 24 h, up to 20 µM [2] [%] |
| --- | --- | --- | --- |
| COc1cc([C@@H]2CC(=O)c3c(O)cc(O[C@@H]4O[C@H](CO)[C@@H](O)[C@H](O)[C@H]4O)cc3O2)ccc1O | 23.4 | 100 | 88.7 |
| O=C(/C=C/c1ccccc1)OC[C@@]1(O)CO[C@@H](O[C@H]2[C@H](Oc3cc(O)c4c(c3)O[C@H](c3ccc(O)c(O)c3)CC4=O)O[C@H](CO)[C@@H](O)[C@@H]2O)[C@@H]1O [VISARTISIDE C] | 14.9 | > 100 | 99.7 |
| O=C(/C=C/c1ccccc1)O[C@H]1[C@H](Oc2cc(O)c3c(c2)O[C@H](c2ccc(O)c(O)c2)CC3=O)O[C@H](CO)[C@@H](O)[C@@H]1O [VISARTISIDE A] | 15.6 | 37.6 | 100 |
| O=C1C[C@@H](c2ccc(O)cc2)Oc2cc(O[C@@H]3O[C@H](CO)[C@@H](O)[C@H](O)[C@H]3O)cc(O)c21 [PRUNIN] | 42.6 | > 100 | 100 |
| O=C1C[C@@H](c2ccccc2)Oc2cc(O[C@@H]3O[C@H](CO)[C@@H](O)[C@H](O)[C@H]3O)cc(O)c21 | 19.2 | > 100 | 74.5 |
| O=C1C[C@@H](c2ccc(O)c(O)c2)Oc2cc(O[C@@H]3O[C@H](CO)[C@@H](O)[C@H](O)[C@H]3O)cc(O)c21 | 41.2 | 63.3 | 100 |
| O=C(/C=C/c1ccccc1)OC[C@@]1(O)CO[C@@H](O[C@@H]2[C@@H](O)[C@H](OCc3ccccc3)O[C@H](CO)[C@H]2O)[C@@H]1O [VISARTISIDE E] | 39.6 | > 100 | 88.1 |
| O=C(/C=C/c1ccccc1)OC[C@@]1(O)CO[C@@H](O[C@@H]2[C@@H](O)[C@@H](O)O[C@H](CO)[C@H]2O)[C@@H]1O [VISARTISIDE D] | 32.3 | > 100 | 80.2 |
| Cc1c(C)c2c(c(C)c1O)CC[C@@](C)(CCC[C@H](C)CCC[C@H](C)CCCC(C)C)O2 | – | 28.4 | – |
| O=C(/C=C/c1ccccc1)OC[C@H]1O[C@@H](Oc2cc(O)c3c(c2)O[C@H](c2ccc(O)c(O)c2)CC3=O)[C@H](O)[C@@H](O)[C@@H]1O [VISARTISIDE B] | 25.1 | 34.1 | 100 |
| O=c1c(O)c(-c2ccc(O)c(O)c2)oc2cc(O)cc(O)c12 [QUERCETIN] | 32.1 | – | 100 |
| COc1cc(CCCc2c(OC)cc(O)c(OC)c2OC)ccc1O[C@@H]1O[C@H](CO)[C@@H](O)[C@H](O)[C@H]1O | 30.2 | > 100 | 77 |
| COc1ccc(/C=C/CO[C@@H]2O[C@H](CO)[C@@H](O)[C@H](O[C@@H]3OC[C@](O)(COC(=O)/C=C/c4ccccc4)[C@H]3O)[C@H]2O)cc1O [VISARTISIDE F] | 27.8 | > 100 | 85.2 |
